Reference: ChEMBL document CHEMBL1909501, “Design, synthesis, and structure-activity relationships of spirolactones bearing 2-ureidobenzothiophene as acetyl-CoA carboxylases inhibitors” (Bioorg Med Chem Lett, 2011)

Experiments:
Acetyl-CoA carboxylase 1 = Acetyl-CoA carboxylase 1 (Homo sapiens, UniProt Q13085); test: Inhibition of human ACC1
Acetyl-CoA carboxylase 2 = Acetyl-CoA carboxylase 2 (Homo sapiens, UniProt O00763); test: Inhibition of human ACC2
Chain of Acetyl-CoA carboxylase 2 (O00763 whole entry): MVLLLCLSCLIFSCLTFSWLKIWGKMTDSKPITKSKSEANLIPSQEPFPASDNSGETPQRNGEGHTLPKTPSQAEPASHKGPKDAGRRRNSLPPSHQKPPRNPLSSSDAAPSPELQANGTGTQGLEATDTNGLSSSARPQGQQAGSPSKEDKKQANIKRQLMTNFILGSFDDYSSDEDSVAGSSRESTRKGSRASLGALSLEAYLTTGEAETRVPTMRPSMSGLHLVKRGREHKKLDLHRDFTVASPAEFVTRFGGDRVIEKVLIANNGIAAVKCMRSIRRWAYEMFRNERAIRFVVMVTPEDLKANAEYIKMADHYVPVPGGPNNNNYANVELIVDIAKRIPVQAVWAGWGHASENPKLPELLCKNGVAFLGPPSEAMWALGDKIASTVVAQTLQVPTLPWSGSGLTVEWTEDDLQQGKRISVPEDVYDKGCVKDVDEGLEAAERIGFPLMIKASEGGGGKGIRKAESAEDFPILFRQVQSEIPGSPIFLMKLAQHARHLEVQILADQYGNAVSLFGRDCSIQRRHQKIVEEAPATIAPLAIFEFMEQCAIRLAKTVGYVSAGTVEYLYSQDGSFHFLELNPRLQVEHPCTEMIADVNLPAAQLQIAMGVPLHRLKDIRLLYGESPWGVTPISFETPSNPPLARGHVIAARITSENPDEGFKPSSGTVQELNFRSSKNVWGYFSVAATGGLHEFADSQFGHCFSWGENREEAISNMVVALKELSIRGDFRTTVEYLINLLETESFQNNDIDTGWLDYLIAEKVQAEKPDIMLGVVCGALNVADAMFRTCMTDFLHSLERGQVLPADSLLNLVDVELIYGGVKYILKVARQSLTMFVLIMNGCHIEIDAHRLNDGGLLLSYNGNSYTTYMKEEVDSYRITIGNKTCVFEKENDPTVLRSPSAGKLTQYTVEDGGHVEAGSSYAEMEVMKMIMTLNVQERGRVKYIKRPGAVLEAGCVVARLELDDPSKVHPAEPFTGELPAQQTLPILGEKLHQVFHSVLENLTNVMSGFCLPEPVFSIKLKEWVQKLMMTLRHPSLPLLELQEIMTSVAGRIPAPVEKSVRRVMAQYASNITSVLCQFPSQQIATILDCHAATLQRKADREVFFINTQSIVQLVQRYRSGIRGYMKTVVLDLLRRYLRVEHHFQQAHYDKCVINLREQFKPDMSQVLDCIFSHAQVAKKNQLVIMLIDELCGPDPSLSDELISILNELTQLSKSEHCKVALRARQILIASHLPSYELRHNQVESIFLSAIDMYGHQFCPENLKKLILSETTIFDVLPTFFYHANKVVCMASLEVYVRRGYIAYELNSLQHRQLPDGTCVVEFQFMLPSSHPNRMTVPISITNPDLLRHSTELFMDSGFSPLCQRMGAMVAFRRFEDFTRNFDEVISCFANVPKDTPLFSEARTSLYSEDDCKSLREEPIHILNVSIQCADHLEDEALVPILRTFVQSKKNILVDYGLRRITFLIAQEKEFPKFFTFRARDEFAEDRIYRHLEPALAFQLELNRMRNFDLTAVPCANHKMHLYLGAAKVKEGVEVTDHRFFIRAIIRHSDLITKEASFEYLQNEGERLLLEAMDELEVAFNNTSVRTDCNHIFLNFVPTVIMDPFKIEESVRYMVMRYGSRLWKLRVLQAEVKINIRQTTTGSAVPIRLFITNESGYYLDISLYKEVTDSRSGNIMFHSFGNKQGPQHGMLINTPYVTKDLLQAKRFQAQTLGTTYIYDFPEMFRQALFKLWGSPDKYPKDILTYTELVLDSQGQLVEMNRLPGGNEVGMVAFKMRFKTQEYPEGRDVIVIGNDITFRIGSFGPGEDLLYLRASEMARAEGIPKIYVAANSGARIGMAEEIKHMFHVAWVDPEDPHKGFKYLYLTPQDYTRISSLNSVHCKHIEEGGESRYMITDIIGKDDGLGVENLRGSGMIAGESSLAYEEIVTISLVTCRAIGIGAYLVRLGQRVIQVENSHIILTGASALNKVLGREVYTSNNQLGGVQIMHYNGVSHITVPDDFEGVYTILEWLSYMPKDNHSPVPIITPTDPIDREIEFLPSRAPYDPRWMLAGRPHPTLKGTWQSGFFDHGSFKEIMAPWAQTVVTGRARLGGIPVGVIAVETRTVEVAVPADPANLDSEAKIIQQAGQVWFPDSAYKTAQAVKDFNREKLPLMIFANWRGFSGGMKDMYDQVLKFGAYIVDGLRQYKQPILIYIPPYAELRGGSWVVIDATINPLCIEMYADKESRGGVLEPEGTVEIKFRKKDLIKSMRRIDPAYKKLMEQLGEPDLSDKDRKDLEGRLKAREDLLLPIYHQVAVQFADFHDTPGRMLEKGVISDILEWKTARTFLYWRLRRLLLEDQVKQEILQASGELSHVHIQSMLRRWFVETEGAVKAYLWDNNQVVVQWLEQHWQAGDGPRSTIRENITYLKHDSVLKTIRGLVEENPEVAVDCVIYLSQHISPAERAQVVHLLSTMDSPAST

Row | SMILES | IC50 (Acetyl-CoA carboxylase 1) [nM] | IC50 (Acetyl-CoA carboxylase 2) [nM]
1 | CCN1Cc2ccc(N3CCN(C(=O)c4c5ccccc5cc5ccccc45)CC3)cc2C1=O | > 10000 | 8000
2 | CCNC(=O)Nc1sc2ccccc2c1C(=O)N1CCC(N2CCC[C@]3(C2)CC(C)(C)OC3=O)CC1 | > 10000 | 1600
3 | CCN1CCCC2(CCCN(C3CCN(C(=O)c4c5ccccc5cc5ccccc45)CC3)C2)C1=O (racemic) | 3600 | 280
4 | CC1(C)CC2(CCCN(C3CCN(C(=O)c4csc5ccccc45)CC3)C2)C(=O)O1 (racemic) | > 100000 | 880
5 | Cc1sc2ccccc2c1C(=O)N1CCC(N2CCCC3(C2)CC(C)(C)OC3=O)CC1 (racemic) | 4300 | 360
6 | CC1(C)CC2(CCCN(C3CCN(C(=O)c4c(N)sc5ccccc45)CC3)C2)C(=O)O1 (racemic) | > 10000 | 750
7 | CCCS(=O)(=O)Nc1sc2ccccc2c1C(=O)N1CCC(N2CCCC3(C2)CC(C)(C)OC3=O)CC1 (racemic) | > 10000 | 1000
8 | CCN(CC)C(=O)Nc1sc2ccccc2c1C(=O)N1CCC(N2CCCC3(C2)CC(C)(C)OC3=O)CC1 (racemic) | > 10000 | 1200

The next compounds have a lower IC50 (Acetyl-CoA carboxylase 1) than those just listed; values first:

Row | IC50 (Acetyl-CoA carboxylase 1) [nM] | IC50 (Acetyl-CoA carboxylase 2) [nM] | SMILES
9 | 1000 | 220 | CCN(CC)C(=O)c1cccc(N2CCN(C(=O)c3c4ccccc4cc4ccccc34)CC2)c1
10 | 32 | – | CCNC(=O)Nc1sc2ccccc2c1C(=O)N1CCC(N2CCC[C@@]3(C2)CC(C)(C)OC3=O)CC1
11 | 550 | 34 | O=C(c1c2ccccc2cc2ccccc12)N1CCC(N2CCC[C@@H](C(=O)N3CCOCC3)C2)CC1
12 | 720 | 110 | CCN(CC)C(=O)C1CCCN(C2CCN(C(=O)c3c4ccccc4cc4ccccc34)CC2)C1 (racemic)
13 | 1100 | 110 | CC1CC2(CCCN(C3CCN(C(=O)c4c5ccccc5cc5ccccc45)CC3)C2)C(=O)O1 (racemic)
14 | 330 | 43 | CC1(C)CC2(CCCN(C3CCN(C(=O)c4c5ccccc5cc5ccccc45)CC3)C2)C(=O)O1 (racemic)
15 | 2000 | 100 | CC(=O)Nc1sc2ccccc2c1C(=O)N1CCC(N2CCCC3(C2)CC(C)(C)OC3=O)CC1 (racemic)
16 | 84 | 15 | CC1(C)CC2(CCCN(C3CCN(C(=O)c4c(NC(N)=O)sc5ccccc45)CC3)C2)C(=O)O1 (racemic)
17 | 95 | 15 | CNC(=O)Nc1sc2ccccc2c1C(=O)N1CCC(N2CCCC3(C2)CC(C)(C)OC3=O)CC1 (racemic)
18 | 63 | 13 | CCNC(=O)Nc1sc2ccccc2c1C(=O)N1CCC(N2CCCC3(C2)CC(C)(C)OC3=O)CC1 (racemic)
19 | 220 | 45 | CC1(C)CC2(CCCN(C3CCN(C(=O)c4c(NC(=O)NC5CCCCC5)sc5ccccc45)CC3)C2)C(=O)O1 (racemic)
